US20130303486A1, “Compositions Comprising Zoledronic Acid or Related Compounds for Relieving Pain Associated with Arthritis” (priority 2012, published 2013)
Where two headings read alike, the source gives them in different places.

What was measured:
[1] = tested on: complex regional pain syndrome (CRPS), fracture hindpaw; assay: rat tibia fracture model of complex regional pain syndrome (CRPS): von Frey, weight bearing, edema, warmth; format: in vivo; details: oral 18 mg/m^2/day (3 mg/kg/day) for 28 days
Experimental: The effect of orally administered zoledronic acid was examined in the rat tibia fracture model of complex regional pain syndrome (CRPS). CRPS was induced in the rats by fracturing the right distal tibias of the animals and casting the fractured hindpaws for 4 weeks, as described in Guo T Z et al. (Pain. 2004; 108:95-107).
Animals were orally administered either vehicle (control) or zoledronic acid, in a dosage of 18 mg/m^2/day (3 mg/kg/day) for 28 days, starting on the day of fracture and casting. Drug was dissolved in distilled water and administered by gavage. Animals were fasted for 4 hours before and 2 hours after dosing. At the end of the 28-day period, casts were removed, and on the following day, the rats were tested for hindpaw pain, edema, and warmth.
Pain was assessed by measuring hyperalgesia, and weight bearing. […]
An incapacitance device (IITC Inc. Life Science, Woodland, Calif., USA) was used to measure hindpaw weight bearing, a postural effect of pain. […] Eight readings (excluding the highest and lowest ones) were averaged to calculate the bilateral hindpaw weight-bearing values. Weight bearing data were analyzed as the ratio between right (fracture) and left hindpaw weight bearing values ((2R/(R+L))×100%). […]
The temperature of the hindpaw was measured using a fine wire thermocouple (Omega, Stanford, Conn., USA) applied to the paw skin. […]

[2] = tested on: inflammatory pain (mechanical hyperalgesia), CFA-injected hind paw; format: in vivo, Sprague-Dawley rats
Experimental: The effect of orally administered zoledronic acid on inflammatory pain was examined using the rat complete Freund's adjuvant (CFA) model. Inflammatory pain was induced by injection of 100% CFA in a 75 μL volume into the left hind paws of Sprague-Dawley rats on day 0, followed by assessments on days 1-3. Animals were orally administered vehicle (control), zoledronic acid 18 mg/m^2 (or 3 mg/kg), zoledronic acid 120 mg/m^2 (or 20 mg/kg), or zoledronic acid 900 mg/m^2 (or 150 mg/kg) daily on days 1-3. Drug was dissolved in distilled water and prepared fresh daily. Animals were fasted prior to dosing. Under current FDA guidelines for extrapolating starting dosages from animals to humans, dosages expressed in mg/m^2 are considered equivalent between mammalian species. Thus, for example, 18 mg/m^2 in a rat is considered equivalent to 18 mg/m^2 in a human being, while 3 mg/kg in a rat may not be equivalent to 3 mg/kg in a human being.
Values for inflammatory pain (mechanical hyperalgesia) in the vehicle and drug-treated animals were obtained on day 0 prior to CFA injection, and at baseline and post-treatment on days 1-3. Pain was assessed using a digital Randall-Selitto device (dRS; IITC Life Sciences, Woodland Hills, Calif.). Animals were placed in a restraint sling that suspended the animal, leaving the hind limbs available for testing. Paw compression threshold was measured by applying increasing pressure to the plantar surface of the hind paw with a dome-shaped tip placed between the 3rd and 4th metatarsus. Pressure was applied gradually over approximately 10 seconds. Measurements were taken from the first observed nocifensive behavior of vocalization, struggle or withdrawal. A cut-off value of 300 g was used to prevent injury to the animal.
Reversal of inflammatory pain was calculated according to the formula:
% reversal=(Post-treatment−Post-CFA baseline)/(Pre-CFA baseline−Post-CFA baseline)×100.
The experiment was carried out using 9-10 animals per group.

O=P(O)(O)C(O)(Cn1ccnc1)P(=O)(O)O [zoledronic acid]
reversal of fracture induced pain (von Frey pain threshold) as compared to vehicle [1]: 77% | paw compression thresholds compared to vehicle ([2]; oral 18 mg/m^2, entire measurement period after 30 minutes from start of treatment): higher than for vehicle | paw compression thresholds compared to vehicle ([2]; oral 120 mg/m^2 (20 mg/kg) daily days 1-3, all time points): approximately equal or inferior to vehicle | toxicity ([2]; oral 900 mg/m^2 (150 mg/kg) daily days 1-3, all animals euthanized two days after cessation of dosing): significant toxicity | paw compression thresholds compared to vehicle ([2]; oral 900 mg/m^2, day three): greater than for vehicle | paw compression thresholds compared to vehicle ([2]; oral 900 mg/m^2, first two days of dosing): lower than vehicle
